Usually hepatocyte CLint stands for the capacity of the preparation to metabolise the compound, expressed as a volume cleared per time. Low readings indicate greater metabolic stability, high ones faster metabolism. What is called IC50 is the concentration that gives 50% inhibition. Read a low IC50 as higher potency. Usually Papp stands for a coefficient for how fast a substance crosses the barrier. A lower Papp goes with poor permeation.

Data set [1] addresses Estrogen Receptor (ERα) in MCF-7 cells (Homo sapiens (Human), UniProt P03372). The experiment in a line: Western blotting assay, ER down-regulation in MCF-7. Type of data set: cell-based. Particulars: 100 nM compound, 48 h, normalised to 100 nM fulvestrant. An outline of the steps: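 Cells treated with compounds at 100 nM or 0.1% DMSO vehicle for 48 h at 37 °C, then lysed; ERα detected by western blot with anti-ERα (SP1) rabbit monoclonal. Down-regulation normalised to vehicle (0%) and 100 nM fulvestrant (100%) run on the same gel.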
A general note: A western blot detects proteins with antibodies after separation by electrophoresis.

Data set [2] in a line: Human hepatocyte assay (metabolic stability). Type of data set: in vitro ADME. The following applies: human hepatocytes. How it is done: The metabolic stability of compounds in human hepatocytes was assessed using the following protocol: • 1. Prepare 10 mM stock solutions of compound and control compounds in appropriate solvent (DMSO). Place incubation medium (L-15 Medium) in a 37° C. water bath, and allow warming for at least 15 minutes prior to use. • 2. Add 80 μL of acetonitrile to each well of the 96-well deep well plate (quenching plate). • 3. In a new 96-well plate, dilute the 10 mM test compounds and the control compounds to 100 μM by combining 198 μL of acetonitrile and 2 μL of 10 mM stock. • 4. Remove a vial of cryopreserved (less than −150° C.) human hepatocytes (LiverPool™ 10 Donor Human hepatocytes obtained from Celsis IVT. Chicago, Ill. (Product No. S01205)) from storage, ensuring that vials remain at cryogenic temperatures until thawing process ensues. As quickly as possible, thaw the cells by placing the vial in a 37° C. water bath and gently shaking the vials. Vials should remain in water bath until all ice crystals have dissolved and are no longer visible. After thawing is complete, spray vial with 70% ethanol, transfer the vial to a bio-safety cabinet. • 5. Open the vial and pour the contents into the 50 mL conical tube containing thawing medium. Place the 50 mL conical tube into a centrifuge and spin at 100 g for 10 minutes. […] Using Cellometer® Vision, count cells and determine the viable cell density. Cells with poor viability (<80% viability) are not acceptable for use. […] Transfer 247.5 μL of hepatocytes into each well of a 96-well cell culture plate. Place the plate on Eppendorf Thermomixer Comfort plate shaker to allow the hepatocytes to warm for 10 minutes. • 8. Add 2.5 μL of 100 μM test compound or control compounds into an incubation well containing cells, mix to achieve a homogenous suspension at 0.5 min, which when achieved, will define the 0.5 min time point. At the 0.5 min time, transfer 20 μL of incubated mixture to wells in a “Quenching plate” followed by vortexing. • 9. Incubate the plate at 37° C. at 900 rpm on an Eppendorf Thermomixer Comfort plate shaker. […] Centrifuge the quenching plates for 20 minutes at 4,000 rpm. 4 different compounds are pooled into one cassette and used for LC/MS/MS analysis.
All calculations were carried out using Microsoft Excel. Peak areas were determined from extracted ion chromatograms. In vitro intrinsic clearance (in vitro Clint, in […]) of parent compound was determined by regression analysis of the Ln percent parent disappearance vs. time curve.
V=incubation volume (0.25 mL);
N=number of hepatocytes per well (0.25×10^6 cells).

For another data set, the target named is hERG potassium channel (Homo sapiens (Human), UniProt Q12809). The experiment in a line: hERG binding assay (automated patch clamp, CHO cells). Type of data set: cell-based. The following applies: CHO cell line, Nanion Syncropatch 384PE. An outline of the steps:
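CHO cells on automated patch clamp; compounds tested in quadruplicate. Currents evoked every 15 s from −80 mV holding by a 500 ms step to 60 mV then 500 ms to −40 mV.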

A short description of data set [3]: Human Caco-2 passive permeability A to B Papp. Type of data set: in vitro ADME. The following applies: apical pH 6.5, basolateral pH 7.4, efflux inhibitor cocktail. The protocol: An automated assay was used to determine the passive permeability of compounds in Caco-2 cell monolayers carried out over 2 hours with an apical pH of 6.5 and basolateral pH of 7.4. The Caco-2 AB inhibition assay is carried out with chemical inhibition of the three major efflux transporters ABCB1 (P-gp), ABCG2 (BCRP) and ABCC2 (MRP2) in Caco-2 cells. Incubation of both apical and basolateral is carried out with a cocktail of inhibitors (50 μM quinidine, 20 μM sulfasalazine and 100 μM benzbromarone). Samples were analyzed through LC/MS/MS to estimate the apparent permeability coefficients (Papp) of compounds across Caco-2 cell monolayers and results are quoted in units of ×10^−6 cm/s.
In general terms: Passage across Caco-2 layers is used to estimate intestinal permeability.

Estrogen Receptor (ERα) in MCF-7 cells, sequence (P03372 whole entry): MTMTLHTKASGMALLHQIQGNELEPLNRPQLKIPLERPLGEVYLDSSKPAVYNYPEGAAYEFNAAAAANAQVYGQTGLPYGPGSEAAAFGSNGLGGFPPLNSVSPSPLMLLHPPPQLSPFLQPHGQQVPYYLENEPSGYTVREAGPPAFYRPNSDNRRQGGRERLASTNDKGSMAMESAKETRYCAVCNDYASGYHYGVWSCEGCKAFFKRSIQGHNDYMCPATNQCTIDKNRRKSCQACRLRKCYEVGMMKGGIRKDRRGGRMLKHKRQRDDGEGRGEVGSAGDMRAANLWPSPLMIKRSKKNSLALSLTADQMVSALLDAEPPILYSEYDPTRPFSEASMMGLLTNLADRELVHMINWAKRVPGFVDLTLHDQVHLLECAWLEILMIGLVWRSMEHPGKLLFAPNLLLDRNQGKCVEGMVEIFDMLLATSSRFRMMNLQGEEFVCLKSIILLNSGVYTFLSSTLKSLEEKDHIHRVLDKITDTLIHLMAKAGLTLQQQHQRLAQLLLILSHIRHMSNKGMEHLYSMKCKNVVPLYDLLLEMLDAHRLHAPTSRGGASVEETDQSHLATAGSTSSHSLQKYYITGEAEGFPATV
hERG potassium channel, sequence (Q12809 whole entry): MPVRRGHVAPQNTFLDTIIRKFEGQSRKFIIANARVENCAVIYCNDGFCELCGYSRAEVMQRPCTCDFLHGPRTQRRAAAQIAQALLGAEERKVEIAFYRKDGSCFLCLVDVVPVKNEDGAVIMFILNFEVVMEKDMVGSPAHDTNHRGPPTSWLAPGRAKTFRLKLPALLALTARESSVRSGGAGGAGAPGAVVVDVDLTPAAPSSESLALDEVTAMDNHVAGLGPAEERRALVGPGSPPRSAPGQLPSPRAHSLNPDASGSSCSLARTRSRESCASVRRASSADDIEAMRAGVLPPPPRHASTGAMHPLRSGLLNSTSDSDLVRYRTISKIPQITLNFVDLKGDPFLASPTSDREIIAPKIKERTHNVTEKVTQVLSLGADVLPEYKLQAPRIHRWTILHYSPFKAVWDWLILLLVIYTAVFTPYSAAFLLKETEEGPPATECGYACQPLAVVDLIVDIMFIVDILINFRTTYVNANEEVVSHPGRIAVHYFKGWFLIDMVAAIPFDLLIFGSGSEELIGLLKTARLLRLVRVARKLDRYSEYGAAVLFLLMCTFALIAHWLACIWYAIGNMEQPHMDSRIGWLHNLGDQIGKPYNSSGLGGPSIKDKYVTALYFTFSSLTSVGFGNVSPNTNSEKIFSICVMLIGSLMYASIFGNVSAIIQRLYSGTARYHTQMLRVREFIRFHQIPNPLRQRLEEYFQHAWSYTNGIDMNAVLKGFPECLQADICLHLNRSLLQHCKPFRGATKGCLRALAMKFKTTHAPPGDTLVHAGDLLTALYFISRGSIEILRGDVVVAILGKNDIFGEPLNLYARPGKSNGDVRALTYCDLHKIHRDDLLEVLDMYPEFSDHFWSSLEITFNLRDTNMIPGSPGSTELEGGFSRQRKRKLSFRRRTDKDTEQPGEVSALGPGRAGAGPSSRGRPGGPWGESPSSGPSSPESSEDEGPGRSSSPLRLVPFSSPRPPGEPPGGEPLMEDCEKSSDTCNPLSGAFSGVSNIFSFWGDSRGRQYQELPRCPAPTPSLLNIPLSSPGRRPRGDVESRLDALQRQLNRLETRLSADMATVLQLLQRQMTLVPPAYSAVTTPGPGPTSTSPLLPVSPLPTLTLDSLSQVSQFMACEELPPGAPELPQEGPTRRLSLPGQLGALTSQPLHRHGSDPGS

On to `COCC(F)(F)CN1[C@H](c2ccc(NC3CN(CCCF)C3)cc2OC)c2ccc3[nH]ncc3c2C[C@H]1C` [Example 1, N-(4-((6S,8R)-7-(2,2-difluoro-3-methoxypropyl)-8-methyl-6,7,8,9-tetrahydro-3H-pyrazolo[4,3-f]isoquinolin-6-yl)-3-methoxyphenyl)-1-(3-fluoropropyl)azetidin-3-amine], for which, in data set [1], the “MCF7 Western % ER deg vs Fv” value worked out at 91%. For the same molecule, the hepatocyte CLint at 1 µM in data set [2] amounted to 11 µL/min/1e6 cells. This molecule gave an IC50 on hERG potassium channel of 10 µM.

With `COCC(F)(F)CN1[C@H](c2ccc(NC3CN(CCCF)C3)cn2)c2ccc3[nH]ncc3c2C[C@H]1C` [Example 2, 6-((6S,8R)-7-(2,2-difluoro-3-methoxypropyl)-8-methyl-6,7,8,9-tetrahydro-3H-pyrazolo[4,3-f]isoquinolin-6-yl)-N-(1-(3-fluoropropyl)azetidin-3-yl)pyridin-3-amine], the “MCF7 Western % ER deg vs Fv” value in data set [1] is 93%. The molecule also returned a hepatocyte CLint at 1 µM in data set [2] of 6 µL/min/1e6 cells. This molecule also registered a half-maximal inhibitory concentration (IC50) at hERG potassium channel of more than 40 µM.

In the case of `C[C@@H]1Cc2c(ccc3[nH]ncc23)[C@@H](c2ccc(NC3CN(CCCF)C3)cn2)N1CC1(F)CC1` [Example 3, 6-((6S,8R)-7-((1-fluorocyclopropyl)methyl)-8-methyl-6,7,8,9-tetrahydro-3H-pyrazolo[4,3-f]isoquinolin-6-yl)-N-(1-(3-fluoropropyl)azetidin-3-yl)pyridin-3-amine], the “MCF7 Western % ER deg vs Fv” value in data set [1] is recorded as 90%. This molecule registered a hepatocyte CLint at 1 µM in data set [2] of 5 µL/min/1e6 cells. This molecule displayed an IC50 at hERG potassium channel of more than 36 µM.

With `COc1cc(NC2CN(CCCF)C2)ccc1[C@@H]1c2ccc3[nH]ncc3c2C[C@@H](C)N1CC1(F)CC1` [Example 6, N-(4-((6S,8R)-7-((1-fluorocyclopropyl)methyl)-8-methyl-6,7,8,9-tetrahydro-3H-pyrazolo[4,3-f]isoquinolin-6-yl)-3-methoxyphenyl)-1-(3-fluoropropyl)azetidin-3-amine], the “MCF7 Western % ER deg vs Fv” value in data set [1] was found to be 89%. The intrinsic clearance (hepatocyte CLint) at 1 µM in data set [2] was 2 µL/min/1e6 cells. At hERG potassium channel, this molecule yielded an IC50 of 9.1 µM. In addition, the Papp at 2 h in data set [3] was 1.8 ×10⁻⁶ cm/s.

As for `C[C@@H]1Cc2c(ccc3[nH]ncc23)[C@@H](c2ccc(NC3CN(CCCF)C3)cn2)N1CC(F)(F)CO` [Example 16, 2,2-difluoro-3-((6S,8R)-6-(5-((1-(3-fluoropropyl)azetidin-3-yl)amino)pyridin-2-yl)-8-methyl-3,6,8,9-tetrahydro-7H-pyrazolo[4,3-f]isoquinolin-7-yl)propan-1-ol], in data set [1], the “MCF7 Western % ER deg vs Fv” value was determined as 104%. This molecule showed an IC50 at hERG potassium channel of more than 40 µM. In data set [3], the Papp at 2 h is 1.7 ×10⁻⁶ cm/s.

`C[C@@H]1Cc2c(ccc3[nH]ncc23)[C@@H](c2ccc(NC3CN(CCCF)C3)cn2)N1CC(F)(F)F` [Example 17, N-(1-(3-fluoropropyl)azetidin-3-yl)-6-((6S,8R)-8-methyl-7-(2,2,2-trifluoroethyl)-6,7,8,9-tetrahydro-3H-pyrazolo[4,3-f]isoquinolin-6-yl)pyridin-3-amine]: in data set [1], the “MCF7 Western % ER deg vs Fv” value is 92%. This molecule had a hepatocyte CLint at 1 µM in data set [2] of 6 µL/min/1e6 cells. The Papp at 2 h in data set [3] came to 13.3 ×10⁻⁶ cm/s.

Take `C[C@@H]1Cc2c(ccc3[nH]ncc23)[C@@H](c2ncc(NC3CN(CCCF)C3)cc2F)N1CC1(F)CC1` [Example 18, 5-fluoro-6-((6S,8R)-7-((1-fluorocyclopropyl)methyl)-8-methyl-6,7,8,9-tetrahydro-3H-pyrazolo[4,3-f]isoquinolin-6-yl)-N-(1-(3-fluoropropyl)azetidin-3-yl)pyridin-3-amine]: the “MCF7 Western % ER deg vs Fv” value in data set [1] was found to be 103%. The hepatocyte CLint at 1 µM in data set [2] was found to be 3 µL/min/1e6 cells. Also, the concentration for half-maximal inhibition (IC50) on hERG potassium channel was more than 38 µM.

Turning to `COc1cc(NC2CN(CCCF)C2)ccc1[C@@H]1c2ccc3[nH]ncc3c2C[C@@H](C)N1CC(C)(F)F` [Example 19, N-(4-((6S,8R)-7-(2,2-difluoropropyl)-8-methyl-6,7,8,9-tetrahydro-3H-pyrazolo[4,3-f]isoquinolin-6-yl)-3-methoxyphenyl)-1-(3-fluoropropyl)azetidin-3-amine], the “MCF7 Western % ER deg vs Fv” value in data set [1] was determined as 92%. In data set [2], this molecule had a hepatocyte CLint at 1 µM of 5 µL/min/1e6 cells. The molecule further gave an IC50 at hERG potassium channel of 5.4 µM.

Take `COc1cc(NC2CN(CCCF)C2)ccc1[C@@H]1c2ccc3[nH]ncc3c2C[C@@H](C)N1CC(F)F` [Example 21, N-(4-((6S,8R)-7-(2,2-difluoroethyl)-8-methyl-6,7,8,9-tetrahydro-3H-pyrazolo[4,3-f]isoquinolin-6-yl)-3-methoxyphenyl)-1-(3-fluoropropyl)azetidin-3-amine]: in data set [1], the “MCF7 Western % ER deg vs Fv” value is listed as 99%. In data set [2], this molecule returned a hepatocyte CLint at 1 µM of 6 µL/min/1e6 cells. The IC50 at hERG potassium channel was 5.3 µM. The molecule further had a Papp at 2 h in data set [3] of 14.1 ×10⁻⁶ cm/s.

On to `C[C@@H]1Cc2c(ccc3[nH]ncc23)[C@@H](c2ccc(NC3CN(CCCF)C3)cn2)N1CC(F)F` [Example 25, 6-((6S,8R)-7-(2,2-difluoroethyl)-8-methyl-6,7,8,9-tetrahydro-3H-pyrazolo[4,3-f]isoquinolin-6-yl)-N-(1-(3-fluoropropyl)azetidin-3-yl)pyridin-3-amine], for which the “MCF7 Western % ER deg vs Fv” value in data set [1] worked out at 98%. Also, the hepatocyte CLint at 1 µM in data set [2] was 5 µL/min/1e6 cells. The molecule further registered an IC50 on hERG potassium channel of 28 µM. Besides, in data set [3], the Papp at 2 h was determined as 5.9 ×10⁻⁶ cm/s.

For `C[C@@H]1Cc2c(ccc3[nH]ncc23)[C@@H](c2ccc(NC3CN(CCCF)C3)cc2)N1CC(F)(F)F` [Example 27, 1-(3-Fluoropropyl)-N-(4-((6R,8R)-8-methyl-7-(2,2,2-trifluoroethyl)-6,7,8,9-tetrahydro-3H-pyrazolo[4,3-f]isoquinolin-6-yl)phenyl)azetidin-3-amine], the “MCF7 Western % ER deg vs Fv” value in data set [1] is 110%. At hERG potassium channel, this molecule displayed a 50% inhibitory concentration (IC50) of 7.9 µM.

Consider `C[C@@H]1Cc2c(ccc3[nH]ncc23)[C@@H](c2ncc(NC3CN(CCCF)C3)cc2F)N1CC(F)(F)F` [Example 30, 5-fluoro-N-(1-(3-fluoropropyl)azetidin-3-yl)-6-((6S,8R)-8-methyl-7-(2,2,2-trifluoroethyl)-6,7,8,9-tetrahydro-3H-pyrazolo[4,3-f]isoquinolin-6-yl)pyridin-3-amine], for which the “MCF7 Western % ER deg vs Fv” value in data set [1] worked out at 96%. This molecule also showed an IC50 at hERG potassium channel of more than 33 µM.

`C[C@@H]1Cc2c(ccc3[nH]nc(F)c23)[C@@H](c2ncc(NC3CN(CCCF)C3)cc2F)N1CC(F)(F)F` [Example 33, 5-Fluoro-6-((6S,8R)-1-fluoro-8-methyl-7-(2,2,2-trifluoroethyl)-6,7,8,9-tetrahydro-3H-pyrazolo[4,3-f]isoquinolin-6-yl)-N-(1-(3-fluoropropyl)azetidin-3-yl)pyridin-3-amine]: in data set [1], the “MCF7 Western % ER deg vs Fv” value was 98%. The molecule further showed a concentration for half-maximal inhibition (IC50) on hERG potassium channel of 14 µM.

Regarding `C[C@@H]1Cc2c(ccc3[nH]ncc23)[C@@H](c2ccc(NC3CN(CCCF)C3)cc2)N1CC(F)F` [Example 48, N-(4-((6R,8R)-7-(2,2-difluoroethyl)-8-methyl-6,7,8,9-tetrahydro-3H-pyrazolo[4,3-f]isoquinolin-6-yl)phenyl)-1-(3-fluoropropyl)azetidin-3-amine], in data set [1], the “MCF7 Western % ER deg vs Fv” value amounted to 93%. Besides, the hepatocyte CLint at 1 µM in data set [2] turned out to be 4 µL/min/1e6 cells.

Consider `COc1cc(NC2CN(CCCF)C2)ccc1[C@@H]1c2ccc3[nH]ncc3c2C[C@@H](C)N1CC(C)(C)F` [Example 64, N-(4-((6S,8R)-7-(2-fluoro-2-methylpropyl)-8-methyl-6,7,8,9-tetrahydro-3H-pyrazolo[4,3-f]isoquinolin-6-yl)-3-methoxyphenyl)-1-(3-fluoropropyl)azetidin-3-amine], for which the “MCF7 Western % ER deg vs Fv” value in data set [1] is listed as 86%. The same molecule registered an IC50 on hERG potassium channel of 13 µM.

These data come from patent publication US10131663B2, “Chemical compounds” (AstraZeneca AB, priority 2016, dated 2018).
